#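 Dose response: 5 concentrations. Exposure: 48 h. Format: 96-well plates. Endpoint: linear interpolation; highest concentration if not reached. TGI is the concentration that stops growth completely.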
# Tests used:
# Test in all cases: NCI-60 cell line screen, 48 h
# UACC-62 melanoma = test system: UACC-62 melanoma
# SF-268 CNS = test system: SF-268 CNS
# SK-MEL-28 melanoma = test system: SK-MEL-28 melanoma
# IGROV1 ovarian = test system: IGROV1 ovarian
# MDA-N = test system: MDA-N
# RPMI-8226 leukemia = test system: RPMI-8226 leukemia
# OVCAR-3 ovarian = test system: OVCAR-3 ovarian
# HCT-15 colon = test system: HCT-15 colon
# ACHN renal = test system: ACHN renal
# HCC-2998 colon = test system: HCC-2998 colon
SMILES,TGI (UACC-62 melanoma) [µM],TGI (SF-268 CNS) [µM],TGI (SK-MEL-28 melanoma) [µM],TGI (IGROV1 ovarian) [µM],TGI (MDA-N) [µM],TGI (RPMI-8226 leukemia) [µM],TGI (OVCAR-3 ovarian) [µM],TGI (HCT-15 colon) [µM],TGI (ACHN renal) [µM],TGI (HCC-2998 colon) [µM]
C=C(C)OCOCCOC,> 100,> 100,> 100,> 100,> 100,> 100,> 100,> 100,> 100,> 100
Cn1c(=O)c(-c2ccccc2)c(O)c2ccccc21,–,> 100,> 100,> 100,> 100,> 100,> 100,> 100,> 100,> 100
O=C1C=CC(=O)c2c(O)c(N3CCC[C@H]3CO)c(Cl)c(O)c21,4.88,> 10,2.23,> 7.96,3.51,1.09,> 7.45,4.15,4.53,> 6.61
O=C1NC2CCCCC2N=C1CC(=O)c1ccc(Br)cc1 (configuration not stated),> 100,> 100,> 100,> 100,> 100,7.16,> 100,> 100,> 100,> 100
O=c1cc(-c2ccncc2)[nH]c2cc3c(cc12)OCO3,> 100,> 100,> 100,> 100,> 100,> 100,> 100,> 100,> 100,> 100
CCC(CO)Nc1nc(NCc2ccccc2)c2ncn(C(C)C)c2n1 (configuration not stated),47,40.4,34.4,> 100,> 100,> 100,37.9,> 100,> 100,34.7
CC(C)c1cccc(C(C)C)c1NC(=O)/C(CC(=O)CC(c1ccccc1)c1c(O)c2ccccc2oc1=O)=N/O (configuration not stated),> 100,> 100,> 100,> 100,> 100,> 100,> 100,> 100,> 100,> 100
CN1C(=O)N(C)C(O)C(Cl)(Br)C1=O (configuration not stated),> 100,> 100,> 100,> 100,> 100,> 100,> 100,> 100,> 100,> 100
CN(C)c1ccc(/C=C(\NC(=O)c2ccccc2)c2nn(C)c(=O)o2)cc1,> 100,> 100,> 100,> 100,> 100,> 100,> 100,> 100,> 100,> 100
NC(=O)c1csc(C2(O)COC(CO)C2O)n1 (configuration not stated),> 100,> 100,> 100,> 100,> 100,> 100,> 100,> 100,> 100,> 100
COC(=O)Cc1ccc2c(cnn2-c2ccccc2)c1OC,> 10,> 10,> 10,> 10,> 10,> 10,> 10,> 10,> 10,> 10
CCP(=O)(OC)C1=CCN(C(=O)OCC[Si](C)(C)C)CC1 (configuration not stated),> 100,> 100,> 100,> 100,> 100,> 100,> 100,> 100,> 100,> 100
O=C1C=CC=C/C1=C1\N=C(c2ccccc2OCC(=O)c2ccccc2)SS1,> 100,> 100,> 100,> 100,> 100,> 100,> 100,> 100,> 100,> 100
CC1=NN(c2nc(N)nc(-c3sccc3N)n2)C(C)(C)C1,> 100,> 100,> 100,> 100,> 100,70.9,> 100,> 100,> 100,> 100
Cc1[nH]c(=O)nc(NCCNCCO)c1C(=O)Nc1cccc2cc3ccccc3cc12,> 100,> 100,> 100,> 100,> 100,> 100,> 100,> 100,> 100,> 100
CCCCSc1nsc(N(C(=O)c2ccccc2)C(=O)c2ccccc2)n1,60.1,> 100,> 100,> 100,> 100,47.2,61.1,> 100,> 100,74.4
O=C(OCCN=c1c2ccccc2ccc2ccccc12)c1ccccc1,> 100,> 100,> 100,> 100,> 100,> 100,> 100,> 100,> 100,> 100
S=C(N/N=C\C(=N/NC(=S)N1CCCCC1)c1ccccc1)N1CCCCC1,4.1,3.72,3.65,3.45,> 100,> 100,3.68,5.1,3.11,3.9
O=P(O)(O)c1ccccc1Oc1ccccc1,> 100,> 100,> 100,> 100,> 100,> 100,> 100,> 100,> 100,> 100

SMILES,TGI (UACC-62 melanoma) [µM],TGI (SF-268 CNS) [µM],TGI (SK-MEL-28 melanoma) [µM],TGI (IGROV1 ovarian) [µM],TGI (MDA-N) [µM],TGI (RPMI-8226 leukemia) [µM],TGI (OVCAR-3 ovarian) [µM],TGI (HCT-15 colon) [µM],TGI (ACHN renal) [µM],TGI (HCC-2998 colon) [µM]
CCn1c2ccc(C(=O)CCCN3CCCCC3)cc2c2cc(C(=O)CCCN3CCCCC3)ccc21,38.8,18.6,34.8,8.73,5.7,4.7,5.3,5.45,15.8,23.8
Cc1cc(S(=O)(=O)Nc2n[nH]c(-c3ccccn3)n2)c(S)cc1Cl,34.8,88.3,> 100,85.4,> 100,> 100,64.3,20.9,54.1,30.2
CC1CCC2(NC1)OC1CC3C4CC=C5CC(OC6OC(CO)C(OC7OC(C)C(O)C(O)C7O)C(O)C6OC6OC(C)C(O)C(O)C6O)CCC5(C)C4CCC3(C)C1C2C (configuration not stated),7.71,4.05,4.41,15.5,4.99,32.5,4.09,16.9,14.6,4.72
O=[N+]([O-])c1ccc(NC(=S)N=Nc2c(O)[nH]c3ccc([N+](=O)[O-])cc23)cc1,49.1,72.4,80.7,40,41.7,> 100,47.5,46.8,74,35.9
N#C/C(C(=O)Nc1ccc(Cl)cc1)=C(/N)N1CCCC1,> 100,–,> 100,> 100,> 100,> 100,> 100,> 100,> 100,> 100
O=C(CCc1cc(O)cc(O)c1)NCCCNC(=O)CCc1cc(O)cc(O)c1,> 100,> 100,> 100,> 100,> 100,> 100,> 100,> 100,> 100,> 100
COc1cc(C(=O)Oc2ccc3c(c2)OCO3)cc(OC)c1OC,> 100,> 100,> 100,> 100,> 100,> 100,> 100,> 100,> 100,> 100
C=C1C(OC2O[C@@H]3O[C@@]4(C)CC[C@H]5[C@H](C)CC[C@@H](C2=C)[C@@]35O4)O[C@@H]2O[C@@]3(C)CC[C@H]4[C@H](C)CC[C@@H]1[C@@]24O3 (some centres not stated),> 50,> 50,> 50,> 50,> 50,> 50,> 50,> 50,> 50,> 50
COc1ccc(-c2c3c(n(C4OC(CO)C(O)C(O)C4O)c(=S)c2C#N)CCC3)cc1 (configuration not stated),> 100,> 100,> 100,> 100,> 100,> 100,69.6,> 100,> 100,> 100
CC1(C)OCC2OC3([C@@H]4OC(C)(C)O[C@H]4CO)OC(C)(C)OC3C2O1 (some centres not stated),> 100,–,> 100,> 100,> 100,> 100,> 100,> 100,> 100,> 100
CC(=O)OCC1OC(n2c(-c3ccccc3)c(N=Nc3ccccc3)c(C)c(C#N)c2=S)C(OC(C)=O)C(OC(C)=O)C1OC(C)=O (configuration not stated),> 100,> 100,> 100,> 100,> 100,> 100,> 100,> 100,> 100,> 100
O=c1nc2c(c(-c3ccc(Br)cc3)[nH]1)COC/C2=C\c1ccc(Br)cc1,> 50,> 50,> 50,> 50,> 50,> 50,> 50,> 50,> 50,> 50
Cc1ccc2c(c1)-c1c(C#N)c(N)nc(-c3ccc(Cl)cc3)c1CCS2(=O)=O,> 100,> 100,> 100,> 100,8.88,8.45,44.4,> 100,> 100,> 100
COC(=O)C1C(C(=O)OC)C2(OC(c3ccc(Cl)cc3)=CC2=O)C12OC(c1ccc(Cl)cc1)=CC2=O (configuration not stated),32.8,73.5,> 100,47.7,47.3,37.2,42,35.2,39.4,36.8
Nc1nc(Cl)cc(NCC2(O)CC2)n1,> 100,> 100,> 100,> 100,> 100,> 100,> 100,> 100,> 100,> 100
Cc1c(CN2CCN(C)CC2)c(CN2CCN(C)CC2)c(C)n1-c1ccc(Cl)cc1,33.9,> 100,39.2,> 100,58.5,> 100,> 100,> 100,> 100,> 100
COc1ccc(/C=c2\s/c(=C3/SC(=S)N(c4ccccc4)C3=O)n(-c3ccccc3)c2=O)cc1,> 100,26.9,> 100,75.9,> 100,> 100,> 100,> 100,28.8,> 100
COc1cc(CC(C)NC(C)=O)cc(OC)c1 (configuration not stated),> 100,> 100,> 100,> 100,> 100,> 100,> 100,> 100,> 100,> 100

# Reference: PubChem BioAssay (NCI)
